Tests used:
Assay in all cases: MTT cell proliferation assay, PU-H71 titration
Assay type in all cases: cell-based
ARK = details: Homo sapiens, ARK myeloma cell line, 72 hours, without thrombin
Description: (§1) Cell growth inhibition of an anticancer agent (PU-H71) (6) was tested in a panel of myeloma cell lines. HMCLs were treated with a titration of the anti-cancer reagent PU-H71 (0 to 4,000 nM) in vitro for 72 hours. The MTT assay was utilized to detect proliferation of each cell line. The half maximal inhibitory concentration (IC50) of PU-H71 was calculated using OriginPro 7.5 statistic software.

U266 = details: Homo sapiens, U-266, U266 myeloma cell line, 72 hours, without thrombin
Description: as §1

XG1 = details: Homo sapiens, XG1 myeloma cell line, 72 hours, without thrombin
Description: as §1

MM144 = details: Homo sapiens, MM144 myeloma cell line, 72 hours, without thrombin
Description: as §1

JJN3 = details: Homo sapiens, JJN-3, JJN3 myeloma cell line, 72 hours, without thrombin
Description: as §1

INA6 = details: Homo sapiens, INA-6, INA6 myeloma cell line, 72 hours, without thrombin
Description: as §1

KMS28PE = details: Homo sapiens, KMS-28PE, KMS28PE myeloma cell line, 72 hours, without thrombin
Description: as §1

RPMI8226 = details: Homo sapiens, RPMI-8226, RPMI8226 myeloma cell line, 72 hours, without thrombin
Description: as §1

OPM2 = details: Homo sapiens, OPM-2, OPM2 myeloma cell line, 72 hours, without thrombin
Description: as §1

KMS28BM = details: Homo sapiens, KMS-28BM, KMS28BM myeloma cell line, 72 hours, without thrombin
Description: as §1

OCI-MY5 = details: Homo sapiens, OCI-MY5 myeloma cell line, 72 hours, without thrombin
Description: as §1

L363 = details: Homo sapiens, L-363, L363 myeloma cell line, 72 hours, without thrombin
Description: as §1

H929 = details: Homo sapiens, NCI-H929, H929 myeloma cell line, 72 hours, without thrombin
Description: as §1

## CC(C)NCCCn1c(Sc2cc3c(cc2I)OCO3)nc2c(N)ncnc21 [PU-H71]
ARK
  IC50: 339 nM
U266
  IC50: 198 nM
XG1
  IC50: 238 nM
MM144
  IC50: 306 nM
JJN3
  IC50: 800 nM
INA6
  IC50: 141 nM
KMS28PE
  IC50: 344 nM
RPMI8226
  IC50: 485 nM
OPM2
  IC50: 415 nM
KMS28BM
  IC50: 164 nM
OCI-MY5
  IC50: 164 nM
L363
  IC50: 232 nM
H929
  IC50: 210 nM

Reference: patent US20130209446A1, “Copy Number Variant-Dependent Genes As Diagnostic Tools, Predictive Biomarkers And Therapeutic Targets” (Board of Trustees of the University of Arkansas, priority 2010, published 2013)
